According to PubChem BioAssay (NCI):
Several values for one entry are separate records, joined by “and”; a condition that tells them apart may be missing. Identical values can stand only once.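 Results reflect a 48-hour exposure of cells in 96-well plates to compound at five concentrations. Here, GI50 denotes the concentration required for 50% inhibition of growth. The concentration for full growth arrest is given as TGI.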

Legend:
Test in all cases: NCI anticancer screen, dose series, 48 h
T-47D breast = tested on: T-47D breast
KM12 colon = tested on: KM12 colon
ACHN renal = tested on: ACHN renal
SNB-75 CNS = tested on: SNB-75 CNS
HL-60(TB) leukemia = tested on: HL-60(TB) leukemia
MCF7 breast = tested on: MCF7 breast
MDA-MB-231 breast = tested on: MDA-MB-231 breast
OVCAR-4 ovarian = tested on: OVCAR-4 ovarian
MDA-N = tested on: MDA-N
OVCAR-8 ovarian = tested on: OVCAR-8 ovarian
OVCAR-3 ovarian = tested on: OVCAR-3 ovarian
SK-MEL-28 melanoma = tested on: SK-MEL-28 melanoma

SMILES	TGI (T-47D breast)	TGI (KM12 colon)	TGI (ACHN renal)	TGI (SNB-75 CNS) [µM]	TGI (HL-60(TB) leukemia)	TGI (MCF7 breast)	TGI (MDA-MB-231 breast)	TGI (OVCAR-4 ovarian) [µM]	TGI (MDA-N)	TGI (OVCAR-8 ovarian)	TGI (OVCAR-3 ovarian)	TGI (SK-MEL-28 melanoma)	GI50 (T-47D breast) [µM]	GI50 (MDA-MB-231 breast) [µM]
Cc1ccc(S(=O)(=O)NC(CCC(=O)NNc2ccccc2)C(=O)NNc2ccccc2)cc1 (stereo unspecified)	> 100 µM	> 100 µM	> 100 µM	> 100	> 100 µM	> 100 µM	> 100 µM	99.2	> 100 µM	> 100 µM	> 100 µM			
NCCCN(CCCCN(CCCN)C(=O)OCc1ccccc1)C(=O)OCc1ccccc1	> 100 µM	> 100 µM	> 100 µM	> 100	> 100 µM	77.7 µM	93.7 µM	> 100		> 100 µM	> 100 µM	> 100 µM		
COC(=O)[C@H](Cc1c[nH]c2ccccc12)NP(=O)(OCCC#N)OCC1OC(n2cc(C)c(=O)[nH]c2=O)CC1N=[N+]=[N-] (stereo partly specified)	> 100 µM	> 100 µM	> 100 µM	> 100	> 100 µM	> 100 µM	> 100 µM	> 100	> 100 µM	> 100 µM	> 100 µM			
CC1CC/C(=C\c2ccc(F)cc2)C2=C1C(c1ccc(F)cc1)N1C(=O)CSC1=N2 (stereo unspecified)	> 100 µM	> 100 µM	> 100 µM		> 100 µM	> 100 µM	> 100 µM		> 100 µM	> 100 µM	> 100 µM	> 100 µM		
O=C(CCN1CCOCC1)/C(=C/c1ccccc1)c1ccccc1		16.5 µM		21.8	4.19 µM	18.8 µM		23.8		4.1 µM	13.5 µM	20.3 µM		
Cc1ccc(S(=O)(=O)NC(=O)NC(Cc2ccc(O)cc2)C(=O)O)cc1 (stereo unspecified)	> 100 µM	> 100 µM		> 100	> 100 µM		> 100 µM	> 100	> 100 µM	> 100 µM		> 100 µM		
COC(C/C(=C/CO[Si](C(C)C)(C(C)C)C(C)C)C(=O)N(COCC[Si](C)(C)C)c1ccccc1I)OC	> 100 µM	> 100 µM	> 100 µM	> 100			> 100 µM	> 100	> 100 µM	> 100 µM	46 µM	50 µM		
O=C(O)CCC(=O)OCN1C(=O)C2C3C=CC(C2C1=O)C1C2C(=O)N(COC(=O)CCC(=O)O)C(=O)C2C31 (stereo unspecified)		> 100 µM	> 100 µM	> 100	46.7 µM			> 100		> 100 µM	> 100 µM	> 100 µM		
O=P1(N2CCOCC2)OCCO1		> 100 µM	> 100 µM		> 100 µM	> 100 µM		> 100	> 100 µM			> 100 µM		
CC(C)(C)C1CCC2c3c([nH]c4ccccc34)C3C(=O)N(c4ccc(C#N)cc4)C(=O)C3C2C1 (stereo unspecified)			65.3 µM		15 µM	> 100 µM	35.2 µM		26.9 µM	45.6 µM	90.8 µM	36.3 µM		
N#CC(CCN1CCC(Nc2ccccc2)(c2nnnn2C2CCCCC2)CC1)(c1ccccc1)c1ccccc1		> 100 µM	> 100 µM	> 100	> 100 µM	> 100 µM	> 100 µM	> 100	> 100 µM	> 100 µM	> 100 µM	> 100 µM		
Nc1cc2c(c3ccccc13)C(CCl)CN2C(=O)c1cc2cc(NC(=O)Nc3ccc4[nH]c(C(=O)N5CC(CCl)c6c5cc(N)c5ccccc65)cc4c3)ccc2[nH]1 (stereo unspecified)	1.34 µM	3.22 µM		0.73		1.4 µM	2.16 µM	> 100	2.49 µM		2.41 µM	2.52 µM		
ClC(Cl)(Cl)C1CCOC1n1nnc2ccccc21 (stereo unspecified)	> 100 µM			54.3	58.2 µM	> 100 µM	> 100 µM		> 100 µM	> 100 µM	> 100 µM			
COc1ccc(C#Cn2nnc3ccccc32)cc1		> 100 µM	> 100 µM		60.6 µM	> 100 µM	> 100 µM	> 100	> 100 µM	> 100 µM	> 100 µM	> 100 µM		
N#C/C(=C/C=C/c1ccco1)C(N)=O	> 10 µM	> 10 µM	> 10 µM	> 10		> 10 µM	> 10 µM		> 10 µM	> 10 µM	> 10 µM	> 10 µM		
CCc1cccc2c3c([nH]c12)-c1ccccc1NC(=O)C3	> 100 µM	> 100 µM		> 100	> 100 µM	> 100 µM	> 100 µM			> 100 µM	> 100 µM	> 100 µM		
C(/C=N/NC1=NCCCCN1)=N\NC1=NCCCCN1	> 100 µM	> 100 µM	> 100 µM	> 100		> 100 µM	> 100 µM	> 100	> 100 µM	> 100 µM	> 100 µM	> 100 µM		
COc1ccc(-n2c(=O)c3[nH]c(=S)[nH]c3n(-c3ccc(OC)cc3)c2=S)cc1	> 100 µM	> 100 µM	> 100 µM	> 100	> 100 µM	> 100 µM	> 100 µM	> 100		> 100 µM	> 100 µM	> 100 µM		
CCC1(O)CC(OC2CC(N(C)C)C(OC3CC(O)C(OC4OC(C)C(=O)C=C4N)C(C)O3)C(C)O2)c2c(cc3c(c2O)C(=O)c2c(O)cccc2C3=O)C1C(=O)OC (stereo unspecified)	0.657 µM and 1.79 µM	1.13 µM and 1.5 µM	0.312 µM and 0.895 µM	0.555	0.5 µM and 0.079 µM	0.756 µM and 2.64 µM	2.03 µM and 2.09 µM		0.207 µM and 0.139 µM	1.59 µM and 1.32 µM	1.18 µM and 0.624 µM	0.363 µM and 0.189 µM	0.0221	0.0369
CCOC(=O)c1ccc(Nc2nc3ccccc3nc2-c2cccs2)cc1	56.2 µM	> 100 µM	> 100 µM	> 100	> 100 µM	> 100 µM	> 100 µM		> 100 µM	> 100 µM	> 100 µM	> 100 µM		
